Experimental data as given in patent publication US5552444A, “Ring-substituted 2-amino-1,2,3,4-tetra-hydronaphthalenes, 3-aminochromanes, and 3-aminothiochromanes” (Eli Lilly and Company, priority 1995, dated 1996).
pIC50: −log10 of the molar value. Structures can show the parent of a compound that is named as a salt.

Molecular target: T1, 5-HT1A receptor (Rattus norvegicus, UniProt P19327)
T1 construct: synaptosomal membranes isolated from cerebral cortex; from tissue; host or cells: rat cerebral cortex, crude synaptosomal membranes (male Sprague-Dawley rats, Harlan Industries)
T1 sequence (P19327 1-422): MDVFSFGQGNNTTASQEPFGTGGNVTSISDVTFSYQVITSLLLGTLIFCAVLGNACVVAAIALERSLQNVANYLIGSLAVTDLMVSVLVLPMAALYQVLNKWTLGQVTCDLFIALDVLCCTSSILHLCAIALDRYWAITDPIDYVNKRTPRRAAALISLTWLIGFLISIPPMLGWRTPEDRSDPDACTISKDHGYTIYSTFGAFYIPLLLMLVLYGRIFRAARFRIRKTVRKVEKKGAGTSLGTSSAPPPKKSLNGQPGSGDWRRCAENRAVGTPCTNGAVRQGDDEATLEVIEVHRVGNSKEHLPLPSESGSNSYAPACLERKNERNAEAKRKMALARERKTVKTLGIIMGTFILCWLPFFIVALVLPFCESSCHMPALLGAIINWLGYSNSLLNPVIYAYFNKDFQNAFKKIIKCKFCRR
Test: Inhibition of 3H-8-OH-DPAT binding to rat cerebral cortex synaptosomal membranes (binding at 5HT1a in vitro)
Design: species or system rat (male Sprague-Dawley)
Conditions: not given
Method: This general procedure is set forth in Wong et al., J. Neural Transm. 71:207-218 (1988).
Male Sprague-Dawley rats (110-150 g) from Harlan Industries (Cumberland, Ind.) were fed a Purina Chow ad libitum for at least 3 days before being used in the studies. Rats were killed by decapitation. The brains were rapidly removed, and the cerebral cortices were dissected out at 4° C.
Brain tissues were homogenized in 0.32M sucrose. After centrifugation at 1000×g for 10 min and then at 17000×g for 20 min, a crude synaptosomal fraction was sedimented. The pellet was suspended in 100 vol of 50 mM Tris-HCl, pH 7.4, incubated at 37° C. for 10 min, and centrifuged at 50000×g for 10 min. The process was repeated and the final pellet was suspended in ice-chilled 50 mM Tris-HCl, pH 7.4. By the radioligand binding method, sites specifically labeled by tritiated 8-hydroxy-2-dipropylamino-1,2,3,4-tetrahydronaphthalene (^3 H-8-OH-DPAT) have been identified as 5-HT1A receptors.
Binding of (^3 H-8-OH-DPAT) was performed according to the previously described method [Wong et al., J. Neural Transm. 64:251-269 (1985)]. Briefly, synaptosomal membranes isolated from cerebral cortex were incubated at 37° C. for 10 min. in 2 ml of 50 mM Tris-HCl, pH 7.4; 10 μM pargyline; 0.6 mM ascorbic acid; 0.4 nM ^3 H-8-OH-DPAT; and from 1 to 1000 nM of test compound. Binding was terminated by filtering samples under reduced pressure through glass fiber (GFB) filters. The filters were washed twice with 5 ml of ice cold buffer and placed in scintillation vials with 10 ml of PCS (Amersham/Searle) scintillation fluid. Radioactivity was measured with a liquid scintillation spectrometer. Unlabeled 8-OH-DPAT at 10 μM was also included in separate samples to establish non-specific binding. Specific binding of ^3 H-8-OH-DPAT is defined as the difference of radioactivity bound in the absence and in the presence of 10 μM unlabeled 8-OH-DPAT.

Compound | pIC50
CCCN(CCC)C1CCc2cccc(C(=O)C(C)(C)C)c2C1 (stereo not drawn) [Example 7, 2-Di-n-propylamino-8-dimethylpropionyl-1,2,3,4-tetrahydronaphthalene, hydrobromide salt] | 8.05

Same assay, conditions: rat cerebral cortex membranes; 0.4 nM 3H-8-OH-DPAT; 37° C., 10 min; pH 7.4; read-out: IC50, concentration of test compound required to inhibit the binding of 3H-8-OH-DPAT by 50%

Compound | pIC50
CCCN(CCC)C1CCc2cccc(C(C)=O)c2C1 (stereo not drawn) [Example 13, 2-Di-n-propylamino-8-acetyl-1,2,3,4-tetrahydronaphthalene] | 9.10
CCCC(=O)c1cccc2c1CC(N(CCC)CCC)CC2 (stereo not drawn) [Example 4, 2-Di-n-propylamino-8-butanoyl-1,2,3,4-tetrahydronaphthalene,hydrobromide salt] | 8.52
CCCN(CCC)C1CCc2cccc(C(=O)COC)c2C1 (stereo not drawn) [Example 12, 2-Di-n-propylamino-8-(methoxyacetyl)-1,2,3,4-tetrahydronaphthalene oxalate] | 8.24
CCCN(CCC)C1CCc2cccc(C(=O)CC(C)C)c2C1 (stereo not drawn) [Example 6, 2-Di-n-propylamino-8-(β-methylbutyryl)-1,2,3,4-tetrahydronaphthalene,hydrobromide salt] | 9.40
CCCN(CCC)C1CCc2cccc(C(=O)c3ccccc3)c2C1 (stereo not drawn) [Example 9, 2-Di-n-propylamino-8-benzoyl-1,2,3,4-tetrahydronaphthalene, tosylate salt] | 8.43
CCCN(CCC)C1CCc2cccc(C(=O)CC)c2C1 (stereo not drawn) [Example 3, 2-Di-n-propylamino-8-propionyl-1,2,3,4-tetrahydronaphthalene, oxalate salt] | 9.10
CCCN(CCC)C1CCc2cccc(C(=O)c3ccccc3F)c2C1 (stereo not drawn) [Example 11, 2-Di-n-propylamino-8-(o-fluorobenzoyl)-1,2,3,4-tetrahydronaphthalene, p-toluenesulfonic acid salt] | 9.10
CCCN(CCC)C1CCc2cccc(C(=O)C3CCCCC3)c2C1 (stereo not drawn) [Example 8, 2-Di-n-propylamino-8-cyclohexanecarbonyl-1,2,3,4-tetrahydronaphthalene, oxalate salt] | 9.30
CCCN(CCC)C1CCc2cccc(C(=O)C(F)(F)F)c2C1 (stereo not drawn) [Example 2, 2-Di-n-propylamino-8-trifluoroacetyl-1,2,3,4-tetrahydronaphthalene, hydrobromide salt] | 7.54
CCCN(CCC)C1CCc2cccc(C(=O)C(C)C)c2C1 (stereo not drawn) [Example 5, 2-Di-n-propylamino-8-(α-methylpropionyl)-1,2,3,4-tetrahydronaphthalene, hydrobromide salt] | 9.40
CCCCC(=O)c1cccc2c1CC(N(CCC)CCC)CC2 (stereo not drawn) [Example 1, 2-Di-n-propylamino-8-pentanoyl-1,2,3,4-tetrahydronaphthalene, oxalate salt] | 8.66
